Literature values in publication PMC10320121 (Nucleic Acids Research, 2023).

Compound: N#Cc1ccc2[nH]cc(CCCCN3CCN(c4ccc5oc(C(N)=O)cc5c4)CC3)c2c1 [Vilazodone, vilazodone]
- oral bioavailability (F): 47.45%
